Laboratory results published in patent US20240309007A1, “CRYSTALLINE FORMS OF 3-{4-[(2R)-2-AMINOPROPOXY]PHENYL}-N-[(1R)- 1-(3-FLUOROPHENYL) ETHYL]IMIDAZO[1,2-B]PYRIDAZIN-6-AMINE AND SALTS THEREOF” (ANHEART THERAPEUTICS (HANGZHOU) CO., LTD., priority 2021, published 2024).
≈ marks a conversion by molar mass, not a printed value. Entries after “also recorded” stand apart in the source; their conditions may differ.

Legend:
Format in all cases: physicochemical
[1] = Stability under stress conditions (XRPD and HPLC purity)
Procedure: A predetermined amount of the crystalline form A of Compound 1 adipate was stored under the following conditions: (1) open to air under 25° C./60% RH for one or two weeks, (2) open to air under 40° C./75% RH for one or two weeks, (3) open to air under 80° C. for one day, and (4) exposed to light for 10 days. Crystalline form and chemical impurity were checked by XRPD and HPLC, respectively.
In Table 5, Sample No. 1 was a crystalline form A starting material before any test; Samples Nos. 2 and 3 were subject to condition (1) described above; Samples Nos. 4 and 5 were subject to condition (2) described above; Samples No. 6 was subject to condition (3) described above; and Samples Nos. 7 and 8 were subject to condition (4) described above where Sample No. 7 was not covered and Sample No. 8 was completely covered by a tin foil as a comparison.

[2] = Solubility of the crystalline form in buffers, SGF, FaSSIF, FeSSIF and water at 37° C. (HPLC; XRPD of undissolved solid); conditions: for solubility at 2 h / solubility at 24 h: 37 °C, thermodynamic from solid
Excerpt: (1) a KCl/HCl buffer solution with a pH of 1.0, (2) a potassium hydrogen phthalate buffer solution with a pH of 3.0, (3) a sodium acetate trihydrate buffer solution with a pH of 4.5, (4) a potassium dihydrogen phosphate buffer solution with a pH of 6.0, (5) a potassium dihydrogen phosphate buffer solution with a pH of 7.5, (6) SGF (simulated gastric fluid), (7) FaSSIF (fasted state simulated intestinal fluids, pH=6.5), (8) FeSSIF (fed state simulated intestinal fluids, pH=5.0), and (9) water. Each mixture was then stirred in a water bath at 37° C. After equilibrated for 2 hours and 24 hours, concentrations (mg/mL) of the crystal in the mixture were measured by HPLC and the undissolved solid was evaluated by XRPD.

[3] = Dynamic Vapor Sorption (DVS), hygroscopicity
Procedure: Dynamic Vapor Sorption (DVS) was performed by using Intrinsic DVS (Surface Measurement Systems, UK). A sample was weighed in an amount of 20-30 mg and was placed in a sample chamber. The measurement was performed at DMDT mode when the temperature of the sample chamber was maintained at 25±1° C.

[4] = Accelerated stability test, 40° C./75% RH, six months; conditions: for Appearance / Assay Adipic acid (potentiometric titration) / Assay DS-6051a (HPLC)/ (anhydrous and solvent free basis) / Related substances (UPLC) Total impurities / Water content (KF) / Related substances (UPLC) Unspecified individual impurity / Crystal form (XRPD): 40° C. ± 2° C./75 ± 5% RH; for Crystal form (XRPD): consistent with reference standard
Procedure: The accelerated stability test of the crystalline form A of Compound 1 adipate was performed by storing a sample at 40° C.±2° C./[…] for six months.

[5] = Exposure to light (1.2 million lux h), 10 days, completely covered by a tin foil (comparison)
[6] = Exposure to light (1.2 million lux h), 10 days, not covered
[7] = open to air, 25° C./60% RH, 1 week
[8] = open to air, 25° C./60% RH, 2 weeks
[9] = open to air, 40° C./75% RH, 1 week
[10] = open to air, 40° C./75% RH, 2 weeks
[11] = starting material before any test
[12] = FaSSIF (fasted state simulated intestinal fluid), pH 6.5, fassif
[13] = FeSSIF (fed state simulated intestinal fluid), pH 5, fessif
[14] = KCl/HCl buffer, pH 1, simulated gastric fluid
[15] = SGF (simulated gastric fluid), 37° C.
[16] = SGF (simulated gastric fluid), simulated gastric fluid
[17] = potassium dihydrogen phosphate buffer pH 6.0, 37° C.
[18] = potassium dihydrogen phosphate buffer pH 7.5, 37° C.
[19] = potassium dihydrogen phosphate buffer, pH 6, aqueous buffer
[20] = potassium dihydrogen phosphate buffer, pH 7.5, aqueous buffer
[21] = potassium hydrogen phthalate buffer pH 3.0, 37° C.
[22] = potassium hydrogen phthalate buffer, pH 3, aqueous buffer
[23] = sodium acetate trihydrate buffer pH 4.5, 37° C.
[24] = sodium acetate trihydrate buffer, pH 4.5, aqueous buffer

## C[C@@H](N)COc1ccc(-c2cnc3ccc(N[C@H](C)c4cccc(F)c4)nn23)cc1 [crystalline form A of Compound 1 adipate, 3-{4-[(2R)-2-aminopropoxy]phenyl}-N-[(1R)-1-(3-fluorophenyl)ethyl]imidazo[1,2-b]pyridazin-6-amine]
[1]
  crystalline form on storage (physical stability): remains unchanged
  physical and chemical stability (in words): superior physical and chemical stability
  purity on storage (chemical stability): essentially unchanged
[1]; [5]
  Purity (%): 99.81%
  XRPD: Form A
[1]; [6]
  Purity (%): 99.79%
  XRPD: Form A
[1]; [7]
  Purity (%): 99.81%
  XRPD: Form A
[1]; [8]
  Purity (%): 99.79%
  XRPD: Form A
[1]; [9]
  Purity (%): 99.84%
  XRPD: Form A
[1]; [10]
  Purity (%): 99.81%
  XRPD: Form A
[1]; open to air, 80° C., 1 day
  Purity (%): 99.68%
  XRPD: Form A
[1]; [11]
  Purity (%): 99.86%
  XRPD: Form A
[2]; [12]
  solubility at 2 h: 331 µg/mL (≈ 0.816 mM)
  solubility at 24 h: 225 µg/mL (≈ 0.555 mM)
[2]; FaSSIF (pH=6.5), 37° C.
  XRPD of undissolved solid: changed
  pH after 24 hours: 5.008
[2]; [13]
  solubility at 2 h: 493 µg/mL (≈ 1.22 mM)
  solubility at 24 h: 143 µg/mL (≈ 0.353 mM)
[2]; FeSSIF (pH=5.0), 37° C.
  XRPD of undissolved solid: Form A
  pH after 24 hours: 4.205
[2]; KCl/HCl buffer pH 1.0, 37° C.
  XRPD of undissolved solid: changed
  pH after 24 hours: 3.746
[2]; [14]
  solubility at 2 h: 20400 µg/mL (≈ 50.4 mM)
  solubility at 24 h: 17800 µg/mL (≈ 43.9 mM)
[2]; [15]
  XRPD of undissolved solid: changed
  pH after 24 hours: 5.281
[2]; [16]
  solubility at 2 h: 15600 µg/mL (≈ 38.5 mM)
  solubility at 24 h: 16000 µg/mL (≈ 39.4 mM)
[2]; pH 1
  solubility (in words): superior solubility
[2]; [17]
  XRPD of undissolved solid: Form A
  pH after 24 hours: 5.055
[2]; [18]
  XRPD of undissolved solid: changed
  pH after 24 hours: 5.570
[2]; [19]
  solubility at 2 h: 2340 µg/mL (≈ 5.76 mM)
  solubility at 24 h: 1700 µg/mL (≈ 4.2 mM)
[2]; [20]
  solubility at 2 h: 597 µg/mL (≈ 1.47 mM)
  solubility at 24 h: 419 µg/mL (≈ 1.03 mM)
[2]; [21]
  XRPD of undissolved solid: changed
  pH after 24 hours: 4.418
[2]; [22]
  solubility at 2 h: 1350 µg/mL (≈ 3.32 mM)
  solubility at 24 h: 852 µg/mL (≈ 2.1 mM)
[2]; [23]
  XRPD of undissolved solid: Form A
  pH after 24 hours: 4.541
[2]; [24]
  solubility at 2 h: 2840 µg/mL (≈ 7 mM)
  solubility at 24 h: 2880 µg/mL (≈ 7.12 mM)
[2]; water, 37° C.
  XRPD of undissolved solid: Form A
  pH after 24 hours: 5.115
[2]; water
  solubility at 2 h: 1610 µg/mL (≈ 3.96 mM)
  solubility at 24 h: 1410 µg/mL (≈ 3.48 mM)
[3]
  crystalline form (XRPD) of the sample before and after the DVS test: did not change
[3]; at 80% RH, 25±1° C.
  weight increase (DVS): 0.235%
[3]; from DVS weight increase at 80% RH
  hygroscopicity (in words): low hygroscopicity; also recorded: very low or nearly no hygroscopicity
[4]
  stability (in words): superior stability
[4]; 0 M
  Appearance: White
  Assay Adipic acid (potentiometric titration): 26.2%
  Assay DS-6051a (HPLC)/ (anhydrous and solvent free basis): 99.5%
  Related substances (UPLC) Total impurities: 0.05%
  Water content (KF): 0.2%
  Crystal form (XRPD): conform
[4]; 0 M, RRT1.48
  Related substances (UPLC) Unspecified individual impurity: 0.05%
[4]; 1 M
  Appearance: White
  Assay Adipic acid (potentiometric titration): 26.5%
  Assay DS-6051a (HPLC)/ (anhydrous and solvent free basis): 100.1%
  Related substances (UPLC) Total impurities: <0.05%
  Related substances (UPLC) Unspecified individual impurity: <0.05%
  Water content (KF): 0.1%
  Crystal form (XRPD): conform
[4]; 2 M
  Appearance: White
  Assay Adipic acid (potentiometric titration): 26.4%
  Assay DS-6051a (HPLC)/ (anhydrous and solvent free basis): 99.6%
  Related substances (UPLC) Total impurities: <0.05%
  Related substances (UPLC) Unspecified individual impurity: <0.05%
  Water content (KF): 0.1%
  Crystal form (XRPD): conform
[4]; 3 M
  Appearance: White
  Assay Adipic acid (potentiometric titration): 26.2%
  Assay DS-6051a (HPLC)/ (anhydrous and solvent free basis): 99.5%
  Related substances (UPLC) Total impurities: <0.05%
  Related substances (UPLC) Unspecified individual impurity: <0.05%
  Water content (KF): 0.1%
  Crystal form (XRPD): conform
[4]; 6 M
  Appearance: White
  Assay Adipic acid (potentiometric titration): 26.2%
  Assay DS-6051a (HPLC)/ (anhydrous and solvent free basis): 99.0%
  Related substances (UPLC) Total impurities: <0.05%
  Related substances (UPLC) Unspecified individual impurity: <0.05%
  Water content (KF): 0.1%
  Crystal form (XRPD): conform
